From US11464749B2, “Bismuth-thiol compositions and methods of use” (Microbion Corporation, priority 2018, dated 2022)
Several values for one entry are separate records, joined by “and”; a condition that tells them apart may be missing. Equal values may be shown once.

Columns and labels:
A. niger = assay: Broth microdilution antifungal susceptibility (Example 13); format: cell-based; settings: Aspergillus niger, ATCC29508; read-out: MIC0 48 hr
E. faecium = assay: Broth microdilution MIC (Example 11); settings: Enterococcus faecium, VRE, VRE vanA Lev^R Cip^R Ery^R
[1] = tested on: vancomycin-intermediate Staphylococcus aureus (VISA); assay: Broth microdilution MIC (Example 12); settings: Staphylococcus aureus
[2] = tested on: B. cenocepacia (B cepacia complex); assay: MIC against CF bacterial strains (Example 5); settings: Burkholderia cenocepacia
Escherichia coli = settings: E. coli MMX 102 (ATCC 25922); CLSI QC ranges shown in parenthesis; cited from earlier work
[3] = Particle size of BisEDT microparticles (Nanosizer/Zetasizer); format: physicochemical; settings: resuspended in 2% Pluronic F-68, sonicated
Experimental: The dried particulate matter was characterized to assess the particle size properties. Briefly, microparticles were resuspended in 2% Pluronic® F-68 (BASF, Mt. Olive, N.J.) and the suspension was sonicated for 10 minutes in a water bath sonicator at standard setting prior to analysis using a Nanosizer/Zetasizer Nano-S particle analyzer (model ZEN1600 (without zeta-potential measuring capacity), Malvern Instruments, Worcestershire, UK) according to the manufacturer's recommendations.

[4] = Single-dose rat PK comparing inhalation, IV and oral dosing
Experimental: Blood Collection for Bioanalytical Analysis: Following exposure, non-terminal blood collections were performed on 2 animals per sex at 0.5, 2, and 8 hours post exposure. Approximately 1 mL of systemic whole blood was collected by jugular vein into tubes containing K3EDTA as an anticoagulant. The tubes were flash frozen with liquid nitrogen stored without processing at −70 to −90° C. until shipping for analysis using ICP-MS assay for quantitation of bismuth as a surrogate for BisEDT.
Increasing the dose and interval leads to larger fluctuations in tissue and blood levels between peak (after dosing) and trough levels (prior to dosing).

[5] = Rat nose-only inhalation study: whole blood and lung BisEDT; format: in vivo, F344 rats; settings: single inhalation dose 47 μg/kg, 8 hr
Experimental: Inhalation Exposure: The initial exposure of BisEDT (Bismuth-1,2-ethanedithiol) was formulated as […] at 100 mg/mL in suspension in 0.5% TWEEN 80®, 10 mM sodium phosphate, pH 7.4, in NaCl (adjusted to approximately 300 mOsm). Aerosols were generated with a commercial compressed air jet nebulizer, PAD LC PLUS®, operated with an inlet pressure of 20 psi.
Detailed gross necropsies were performed on all animals (found dead, moribund, or scheduled necropsy) and consisted of a complete external and internal examination including body orifices and cranial, thoracic, and abdominal organs and tissues. All gross findings will be recorded in descriptive terms. […] Lungs collected and weighed.

[6] = Face mask inhalation in beagle dogs: hematology; format: in vivo; settings: inhalation Day 0 and Day 7, successive samplings
Experimental: Once adequately conditioned to the restraint device and face-masks, the animals are individually exposed to the test article aerosols. Animals receive a single face-mask inhalation exposure in a ramp study design to test article aerosols for up to 60 min. Animal observations during and post exposure determine the tolerance of inhaled BisEDT aerosols.
Group 1 (vehicle) are exposed to a vehicle atmosphere for 30 minutes. Group 2 (50 μg/kg) are exposed to BisEDT for 30 minutes. Target concentrations and exposure durations for Groups 3-5 are based on the presence of any toxicity via clinical observations or gross necropsy findings. In each of Groups 3-5, if no adverse clinical signs of toxicity are observed, the next groups' exposure will be conducted at a higher target dose. If adverse clinical signs of toxicity are observed, the next groups' exposure will be conducted at a lower target dose. This approach is repeated for all BisEDT doses. The final documented exposure duration is the maximum tolerated dose or the maximum feasible dose.
The aerosol generation system couples a commercially available compressed air jet nebulizer to a chamber that allows the aerosols to transition to the animals. […]
Hematology samples are analyzed by automated (ADVIA™ 120 Hematology System, Siemens Medical Solutions Diagnostics, Tarrytown, N.Y.) analyses. Disposition will be recorded on the sample processing form.

[7] = 24 hours after single inhalation dose
[8] = 4 days (96 hrs) after single inhalation dose

Q: For CC(S)C(C)S.[Bi] (stereo not drawn) [BisBDT, bismuth-2,3-butanedithiol], which MIC (A. niger) is on record?
A: Its MIC is 2 µg/mL.

Q: And the MIC (E. faecium; E. faecium MMX 485)?
A: The MIC was 0.5 µg/mL.

Q: What about the MIC (E. faecium; E. faecium MMX 752) of the same compound?
A: Its MIC is 1 µg/mL.

Q: What about the MIC ([1]; NRS1 / VISA) of the same compound?
A: The MIC was 0.12 µg/mL.

Q: And the MIC ([1]; NRS2 / VISA)?
A: The MIC was ≤ 0.06 µg/mL.

Q: What about the MIC ([1]; NRS3 / VISA) of the same compound?
A: Its MIC is 0.25 µg/mL.

Q: And the MIC ([1]; NRS4 / VISA)?
A: Its MIC is 0.25 µg/mL.

Q: And the MIC ([1]; NRS13 / VISA)?
A: Its MIC is 0.12 µg/mL.

Q: And the MIC ([1]; NRS18 / VISA)?
A: Its MIC is 0.25 µg/mL.

Q: And the MIC ([1]; NRS22 / VISA)?
A: Its MIC is 0.25 µg/mL.

Q: What about the MIC ([1]; NRS24 / VISA) of the same compound?
A: The MIC was 1 µg/mL.

Q: And the MIC ([1]; NRS27 / VISA)?
A: Its MIC is 0.25 µg/mL.

Q: And the MIC [2]?
A: Its MIC is 4 µg/mL.

Q: With C[C@@H](O)[C@H]1C(=O)N2C(C(=O)O)=C(S[C@@H]3CN[C@H](C(=O)N(C)C)C3)[C@H](C)[C@H]12 [Meropenem, reference compound] as the compound, how does the “CLSI QC range of MIC” value (Escherichia coli) read?
A: Its value is “(0.008-0.06) μg/mL”.

Q: Which “peak volumetric mean diameter (VMD) of microparticles” value [3] does the source give for C1C[S][Bi]([S]CC[S][Bi]2[S]CC[S]2)[S]1 [BisEDT, bismuth-1,2-ethanedithiol] here?
A: Its value is “about 1.3 microns”.

Q: And the “lung levels after IV dosing vs inhalation group” value ([4]; 100 μg/kg IV)?
A: Its value is < 5%.

Q: What about the tolerability ([4]; 100 μg/kg inhalation and IV and 250 μg/kg oral) of the same compound?
A: The tolerability was “tolerated”.

Q: What about the “lung levels after oral dosing” value ([4]; 250 μg/kg oral) of the same compound?
A: Its value is “no lung levels”.

Q: What about the “equated concentration in lung fluid” value [4, 7] of the same compound?
A: Its value is 123 µg/mL.

Q: And the lung tissue concentration [4, 7]?
A: The lung tissue concentration was 4,093 ng/g.

Q: And the “equated concentration in lung fluid” value [4, 8]?
A: Its value is 78 µg/mL.

Q: And the lung tissue concentration [4, 8]?
A: The lung tissue concentration was 2,600 ng/g.

Q: And the “duration of initial distribution into tissues” value ([4]; IV dosing)?
A: The value was 18 h.

Q: What about the Kp ([4]; both, lung versus whole blood, inhaled, 100 μg/kg) of the same compound?
A: Its Kp is ~10.

Q: And the “Mean BisEDT Conc, whole blood” value [5]?
A: Its value is 114 ng/mL.

Q: What about the LUC ([6]; dog Group 2, lung deposited 55-56 ug/kg, lines = animal 2001, 2002 or Grp Avg) of the same compound?
A: The LUC was 0.01 ^3/uL and 0.02 ^3/uL.

Q: What about the LUC ([6]; dog Group 4, lung deposited 176-197 ug/kg, lines = animal 4001-4004 or Grp Avg) of the same compound?
A: Its LUC is 0.01 ^3/uL and 0.02 ^3/uL.
